Tests used:
[1] = Solubility in bio-relevant media; assay type: physicochemical
[2] = Hygroscopicity, moisture sorption on VTI instrument SGA 100; conditions: for level of hygroscopicity / weight increase of the compound (moisture): 25 °C; for hygroscopicity of the solid form (general statement): hydrochloride
Description: There were 24 Relative Humidity steps used. The Relative Humidity at each step is as follows.

[3] = Chemical stability of solid form; assay type: physicochemical; conditions: compared with free acid and other salt forms, including the amorphous hydrochloride form

Structure (SMILES) | solubility in bio-relevant media [1] | level of hygroscopicity ([2]; crystalline form, no drying, 24 relative humidity steps) | weight increase of the compound (moisture) ([2]; crystalline form, no drying, 24 relative humidity steps, 5 to 90) | hygroscopicity of the solid form (general statement) [2] | chemical stability [3] | level of hygroscopicity ([2]; amorphous form, dried at 60 °C, 19 relative humidity steps) | weight increase of the compound (moisture) ([2]; amorphous form, dried at 60 °C, 19 relative humidity steps, 0 to 90)
Cl.Cn1ncc(Cl)c1-c1cc(C(=O)N[C@H](CN)Cc2cccc(F)c2)sc1Cl [Compound A] | good solubility | low level of hygroscopicity | less than 1 % w/w | non-hygroscopic | improved chemical stability | – | –
Cl.Cn1ncc(Cl)c1-c1cc(C(=O)N[C@H](CN)Cc2cccc(F)c2)sc1Cl [Example 3] | – | – | – | hygroscopic | – | high level of hygroscopicity | more than 18 % w/w

From US20110288142A1, “CRYSTALLINE N--5-chloro-4-(4-chloro-1-methyl-1H-pyrazol-5-yl)-2-thiophenecarboxamide hydrochloride” (priority 2009, published 2011)
